The record followed here is patent US8710065B2, “Tricyclic inhibitors of kinases” (AbbVie Inc., priority 2011, dated 2014).

Structures are written as SMILES.

For the assay, the target named is T1, GST-tagged-Wee1 kinase (Homo sapiens, UniProt P30291).
T1 construct: purchased Carnabio (Carna Biosciences) 05-177
T1 sequence (P30291 whole entry): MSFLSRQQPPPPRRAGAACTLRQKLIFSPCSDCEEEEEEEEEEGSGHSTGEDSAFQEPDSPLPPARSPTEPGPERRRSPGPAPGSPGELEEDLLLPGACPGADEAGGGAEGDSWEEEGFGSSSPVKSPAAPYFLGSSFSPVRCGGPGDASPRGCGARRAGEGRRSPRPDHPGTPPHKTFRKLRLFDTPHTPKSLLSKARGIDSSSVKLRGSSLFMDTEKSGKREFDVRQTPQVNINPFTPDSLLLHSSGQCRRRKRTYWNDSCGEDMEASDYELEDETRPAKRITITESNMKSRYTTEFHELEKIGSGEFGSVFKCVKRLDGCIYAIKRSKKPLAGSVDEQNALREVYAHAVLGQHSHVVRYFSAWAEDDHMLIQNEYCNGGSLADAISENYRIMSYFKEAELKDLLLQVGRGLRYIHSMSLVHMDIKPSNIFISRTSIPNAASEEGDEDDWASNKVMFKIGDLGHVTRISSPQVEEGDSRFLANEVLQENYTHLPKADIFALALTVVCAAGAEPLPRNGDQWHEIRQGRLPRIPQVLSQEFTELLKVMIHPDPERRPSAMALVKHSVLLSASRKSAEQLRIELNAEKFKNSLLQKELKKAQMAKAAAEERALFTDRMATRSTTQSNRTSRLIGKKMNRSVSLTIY
In words: Wee1 time-resolved fluorescence equilibrium binding assay (displacement of Oregon Green-labeled ATP-competitive kinase probe). To be noted: read-out: Wee-1 inhibition (Ki). In outline: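 Ki values derive from competitive displacement, under equilibrium, of a fast-reversible ATP-site Oregon Green kinase probe from GST-tagged Wee1, detected by time-resolved fluorescence.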
In general, Ki refers to a dissociation constant, usually derived from enzyme kinetics or from competition with a known ligand. As to `O=C(C1CC1)N1Cc2cc(Nc3ncc4c(=O)n(-c5c(Cl)cc(F)cc5Cl)c5nccn5c4n3)ccc2C2(CC2)C1` [Example 171, 2-{[2′-(cyclopropylcarbonyl)-2′,3′-dihydro-1′H-spiro[cyclopropane-1,4′-isoquinolin]-7′-yl]amino}-6-(2,6-dichloro-4-fluorophenyl)imidazo[1,2-a]pyrimido[5,4-e]pyrimidin-5(6H)-one], the inhibition constant Ki was < 10 nM.

For the molecule `CS(=O)(=O)N1Cc2cc(Nc3ncc4c(=O)n(-c5c(Cl)cc(F)cc5Cl)c5nccn5c4n3)ccc2C2(CC2)C1` [Example 172, 6-(2,6-dichloro-4-fluorophenyl)-2-{[2′-(methylsulfonyl)-2′,3′-dihydro-1′H-spiro[cyclopropane-1,4′-isoquinolin]-7′-yl]amino}imidazo[1,2-a]pyrimido[5,4-e]pyrimidin-5(6H)-one], the Ki was < 10 nM.

Take `O=c1c2cnc(Nc3ccc(N4CCNCC4)nc3)nc2n2ccnc2n1-c1c(Cl)cc(F)cc1Cl` [Example 173, 6-(2,6-dichloro-4-fluorophenyl)-2-{[6-(piperazin-1-yl)pyridin-3-yl]amino}imidazo[1,2-a]pyrimido[5,4-e]pyrimidin-5(6H)-one]: the Ki is < 10 nM.

As to `O=C1CNCCN1c1ccc(Nc2ncc3c(=O)n(-c4c(Cl)cccc4Cl)c4nccn4c3n2)cc1` [Example 174, 6-(2,6-dichlorophenyl)-2-{[4-(2-oxopiperazin-1-yl)phenyl]amino}imidazo[1,2-a]pyrimido[5,4-e]pyrimidin-5(6H)-one], the Ki is < 10 nM.

On to `O=c1c2cnc(Nc3ccc(N4C[C@H]5C[C@@H]4CN5)cc3)nc2n2ccnc2n1-c1c(Cl)cccc1Cl` [Example 175, 2-({4-[(1R,4R)-2,5-diazabicyclo[2.2.1]hept-2-yl]phenyl}amino)-6-(2,6-dichlorophenyl)imidazo[1,2-a]pyrimido[5,4-e]pyrimidin-5(6H)-one], for which the inhibitory constant (Ki) is < 10 nM.

As to `CC(C)c1cc(Nc2ncc3c(=O)n(-c4c(Cl)cccc4Cl)c4nccn4c3n2)ccc1N1CCN(C)CC1` [Example 176, 6-(2,6-dichlorophenyl)-2-{[4-(4-methylpiperazin-1-yl)-3-(propan-2-yl)phenyl]amino}imidazo[1,2-a]pyrimido[5,4-e]pyrimidin-5(6H)-one], the Ki was < 10 nM.

Turning to `CN1C(C)(C)c2ccc(Nc3ncc4c(=O)n(-c5c(Cl)cccc5Cl)c5nccn5c4n3)cc2C1(C)C` [Example 177, 6-(2,6-dichlorophenyl)-2-[(1,1,2,3,3-pentamethyl-2,3-dihydro-1H-isoindol-5-yl)amino]imidazo[1,2-a]pyrimido[5,4-e]pyrimidin-5(6H)-one], the inhibition constant (Ki) is < 10 nM.

Take `CN1Cc2cc(Nc3ncc4c(=O)n(-c5c(Cl)cccc5Cl)c5nccn5c4n3)ccc2C1(C)C` [Example 178, 6-(2,6-dichlorophenyl)-2-[(1,1,2-trimethyl-2,3-dihydro-1H-isoindol-5-yl)amino]imidazo[1,2-a]pyrimido[5,4-e]pyrimidin-5(6H)-one]: the inhibition constant Ki is < 10 nM.

As for `O=C1Nc2ccc(Nc3ncc4c(=O)n(-c5c(Cl)cccc5Cl)c5nccn5c4n3)cc2C[C@@H]2CNC[C@@H]12` [Example 179, (3aS,10aS)-8-{[6-(2,6-dichlorophenyl)-5-oxo-5,6-dihydroimidazo[1,2-a]pyrimido[5,4-e]pyrimidin-2-yl]amino}-2,3,3a,5,10,10a-hexahydropyrrolo[3,4-c][1]benzazepin-4(1H)-one], the Ki is < 10 nM.

With `O=C1CCC(c2ccc(Nc3ncc4c(=O)n(-c5c(Cl)cccc5Cl)c5nccn5c4n3)cc2)=NN1` [Example 180, 6-(2,6-dichlorophenyl)-2-{[4-(6-oxo-1,4,5,6-tetrahydropyridazin-3-yl)phenyl]amino}imidazo[1,2-a]pyrimido[5,4-e]pyrimidin-5(6H)-one], the Ki was < 10 nM.

As for `O=c1c2cnc(Nc3ccc4snnc4c3)nc2n2ccnc2n1-c1c(Cl)cccc1Cl` [Example 181, 2-(1,2,3-benzothiadiazol-5-ylamino)-6-(2,6-dichlorophenyl)imidazo[1,2-a]pyrimido[5,4-e]pyrimidin-5(6H)-one], the Ki was in the range of 10 to 100 nM.

`O=c1c2cnc(Nc3ccc4ncsc4c3)nc2n2ccnc2n1-c1c(Cl)cccc1Cl` [Example 182, 2-(1,3-benzothiazol-6-ylamino)-6-(2,6-dichlorophenyl)imidazo[1,2-a]pyrimido[5,4-e]pyrimidin-5(6H)-one]: the Ki is < 10 nM.

For `COCCN(CCOC)c1ccc(Nc2ncc3c(=O)n(-c4ccccc4Cl)c4nccn4c3n2)cc1` [Example 183, 2-({4-[bis(2-methoxyethyl)amino]phenyl}amino)-6-(2-chlorophenyl)imidazo[1,2-a]pyrimido[5,4-e]pyrimidin-5(6H)-one], the Ki fell in the range of 10 to 100 nM.

For `O=c1c2cnc(Nc3ccc4c(c3)CCN(C3CC3)CC4)nc2n2ccnc2n1-c1ccccc1Cl` [Example 184, 6-(2-chlorophenyl)-2-[(3-cyclopropyl-2,3,4,5-tetrahydro-1H-3-benzazepin-7-yl)amino]imidazo[1,2-a]pyrimido[5,4-e]pyrimidin-5(6H)-one], the Ki is < 10 nM.

For the molecule `O=c1c2cnc(Nc3ccc4c(c3)CCN(CC(F)F)CC4)nc2n2ccnc2n1-c1ccccc1Cl` [Example 185, 6-(2-chlorophenyl)-2-{[3-(2,2-difluoroethyl)-2,3,4,5-tetrahydro-1H-3-benzazepin-7-yl]amino}imidazo[1,2-a]pyrimido[5,4-e]pyrimidin-5(6H)-one], the Ki was < 10 nM.

Regarding `CN1CCN(c2ccc(Nc3ncc4c(=O)n(-c5c(F)cc(F)cc5Cl)c5nccn5c4n3)cc2)CC1` [Example 186, 6-(2-chloro-4,6-difluorophenyl)-2-{[4-(4-methylpiperazin-1-yl)phenyl]amino}imidazo[1,2-a]pyrimido[5,4-e]pyrimidin-5(6H)-one], the Ki is < 10 nM.

For `CN1Cc2cc(Nc3ncc4c(=O)n(-c5c(F)cc(F)cc5Cl)c5nccn5c4n3)ccc2C(C)(C)C1` [Example 187, 6-(2-chloro-4,6-difluorophenyl)-2-[(2,4,4-trimethyl-1,2,3,4-tetrahydroisoquinolin-7-yl)amino]imidazo[1,2-a]pyrimido[5,4-e]pyrimidin-5(6H)-one], the inhibition constant Ki was < 10 nM.

As to `CN(C)C1Cc2ccc(Nc3ncc4c(=O)n(-c5c(F)cc(F)cc5Cl)c5nccn5c4n3)cc2C1` (stereo not drawn) [Example 188, 6-(2-chloro-4,6-difluorophenyl)-2-{[2-(dimethylamino)-2,3-dihydro-1H-inden-5-yl]amino}imidazo[1,2-a]pyrimido[5,4-e]pyrimidin-5(6H)-one], the inhibition constant Ki was < 10 nM.

Consider `O=c1c2cnc(Nc3ccc(NCCCN4CCOCC4)cc3)nc2n2ccnc2n1-c1ccccc1Cl` [Example 189, 6-(2-chlorophenyl)-2-[(4-{[3-(morpholin-4-yl)propyl]amino}phenyl)amino]imidazo[1,2-a]pyrimido[5,4-e]pyrimidin-5(6H)-one], for which the Ki was 10 to 100 nM.

Regarding `O=c1c2cnc(Nc3ccc(N4CCC(N5CCCC5)CC4)cc3)nc2n2ccnc2n1-c1ccccc1Cl` [Example 190, 6-(2-chlorophenyl)-2-({4-[4-(pyrrolidin-1-yl)piperidin-1-yl]phenyl}amino)imidazo[1,2-a]pyrimido[5,4-e]pyrimidin-5(6H)-one], the Ki was < 10 nM.

For the molecule `CN(C)C1CCN(c2ccc(Nc3ncc4c(=O)n(-c5ccccc5Cl)c5nccn5c4n3)cc2)CC1` [Example 191, 6-(2-chlorophenyl)-2-({4-[4-(dimethylamino)piperidin-1-yl]phenyl}amino)imidazo[1,2-a]pyrimido[5,4-e]pyrimidin-5(6H)-one], the Ki is < 10 nM.
